Results published in publication PMC4612780, “Divergent Inhibitor Susceptibility among Airway Lumen-Accessible Tryptic Proteases” (PLoS ONE, 2015).

Key:
Test in all cases: chromogenic hydrolysis of QAR, […] nm, initial rates
Type in all cases: biochemical
matriptase [1] = molecular target: T1, matriptase (Homo sapiens, UniProt Q9Y5Y6); details: 1 mM QAR, pH 7.6, 120 mM NaCl, 0.05% Tween 20, 100 ug/ml heparin, 37 C, matriptase 2.4 nM
T1 construct: gene ST14
T1 sequence (Q9Y5Y6 615-855 limits assumed): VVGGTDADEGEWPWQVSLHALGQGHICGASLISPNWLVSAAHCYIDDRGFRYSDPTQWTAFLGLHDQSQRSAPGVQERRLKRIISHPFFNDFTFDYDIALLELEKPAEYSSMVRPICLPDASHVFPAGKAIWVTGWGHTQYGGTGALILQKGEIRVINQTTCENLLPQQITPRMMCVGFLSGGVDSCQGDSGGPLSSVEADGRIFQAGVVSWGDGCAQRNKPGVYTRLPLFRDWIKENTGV

prostasin = molecular target: T2, prostasin (Homo sapiens, UniProt Q16651); details: 1 mM QAR, pH 7.6, 120 mM NaCl, 0.05% Tween 20, 100 ug/ml heparin, 37 C, prostasin 80 nM
T2 construct: gene PRSS8; recombinant soluble catalytic domain (R&D Systems)
T2 sequence (Q16651 33-322 limits assumed): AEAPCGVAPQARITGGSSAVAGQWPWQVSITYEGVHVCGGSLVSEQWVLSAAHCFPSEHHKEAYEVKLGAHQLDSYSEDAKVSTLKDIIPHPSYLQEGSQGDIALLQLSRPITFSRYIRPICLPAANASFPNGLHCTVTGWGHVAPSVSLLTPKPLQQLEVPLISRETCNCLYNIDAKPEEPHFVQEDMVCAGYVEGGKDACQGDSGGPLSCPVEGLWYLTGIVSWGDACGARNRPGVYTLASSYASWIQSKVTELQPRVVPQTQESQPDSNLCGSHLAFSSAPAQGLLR

[2] = molecular target: T3, β-tryptase; human lung (β) tryptase; details: 1 mM QAR, pH 7.6, 120 mM NaCl, 0.05% Tween 20, 100 ug/ml heparin, 37 C, tryptase 0.70 nM
T3 construct: gene TPSAB1; native soluble tetramer from human lung (EMD-Millipore)

[3] = molecular target: T4, HAT; airway trypsin-like protease (Homo sapiens, UniProt O60235); details: 1 mM QAR, pH 7.6, 120 mM NaCl, 0.05% Tween 20, 100 ug/ml heparin, 37 C, HAT 0.72 nM
T4 construct: gene TMPRSS11D; recombinant soluble catalytic domain (R&D Systems)
T4 sequence (O60235 187-418 limits assumed): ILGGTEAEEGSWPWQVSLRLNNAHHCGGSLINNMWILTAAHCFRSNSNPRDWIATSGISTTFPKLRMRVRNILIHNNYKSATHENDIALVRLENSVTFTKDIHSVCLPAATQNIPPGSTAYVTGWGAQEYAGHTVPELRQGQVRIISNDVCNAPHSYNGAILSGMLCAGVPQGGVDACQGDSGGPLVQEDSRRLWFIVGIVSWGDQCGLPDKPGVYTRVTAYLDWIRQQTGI

[4] = molecular target: T4, HAT; airway trypsin-like protease; details: 1 mM QAR, pH 7.6, 120 mM NaCl, 0.05% Tween 20, 100 ug/ml heparin, 37 C; HAT 0.72 nM; unreliable (beyond tested range 1.6-20 uM)
matriptase [5] = molecular target: T1, matriptase; details: 1 mM QAR, pH 7.6, 120 mM NaCl, 0.05% Tween 20, 100 ug/ml heparin, 37 C; matriptase 2.4 nM; unreliable (beyond tested range 0.24-1200 uM)

**Q.** Which results are given for `CN(C)C(=O)COC(=O)Cc1ccc(OC(=O)c2ccc(NC(=N)N)cc2)cc1` [camostat]?
**A.** Matriptase (matriptase [1]; covalent (acyl intermediate)): 96 [80, 115] [inhibitor]/[enzyme] ratio (dimensionless); Prostasin (prostasin; covalent (acyl intermediate)): 14 [7.7, 25] [inhibitor]/[enzyme] ratio (dimensionless); Tryptase ([2]; covalent (acyl intermediate)): 5.2 [3.7, 7.2] [inhibitor]/[enzyme] ratio (dimensionless); HAT ([3]; covalent (acyl intermediate)): 20 [16, 24] [inhibitor]/[enzyme] ratio (dimensionless)

**Q.** Which Prostasin (prostasin) does the source give for `N=C(N)Nc1ccc(C(=O)Oc2ccc3cc(C(=N)N)ccc3c2)cc1` [nafamostat] here?
**A.** The Prostasin was 11 [5.6, 20] [inhibitor]/[enzyme] ratio (dimensionless).

**Q.** And the Tryptase ([2]; covalent, suicide substrate, near-stoichiometric)?
**A.** Its Tryptase is 0.44 [0.29, 0.67] [inhibitor]/[enzyme] ratio (dimensionless).

**Q.** What about the HAT [3] of the same compound?
**A.** The HAT was 191 [154, 239] [inhibitor]/[enzyme] ratio (dimensionless).

**Q.** With `N=C(N)c1ccc2[nH]c(Cc3nc4ccc(C(=N)N)cc4[nH]3)nc2c1` [BABIM, bis(5-amidino-2-benzimidazolyl)methane] as the compound, how does the Matriptase (matriptase [1]) read?
**A.** Its Matriptase is 0.98 [0.87, 1.11] [inhibitor]/[enzyme] ratio (dimensionless).

**Q.** What about the Tryptase [2] of the same compound?
**A.** Its Tryptase is 108 [78, 149] [inhibitor]/[enzyme] ratio (dimensionless).

**Q.** And the HAT ([3]; brackets 95% CI)?
**A.** Its HAT is 71 [48, 105] [inhibitor]/[enzyme] ratio (dimensionless).

**Q.** Which Tryptase [2] does the source give for `N=C(N)c1ccccc1` [benzamidine] here?
**A.** The Tryptase was 4.7e4 [3.4e4, 6.5e4] [inhibitor]/[enzyme] ratio (dimensionless).

**Q.** What about the HAT [4] of the same compound?
**A.** The HAT was 1.4e6 [2.0e5, 9.6e6] [inhibitor]/[enzyme] ratio (dimensionless).

**Q.** And the Matriptase (matriptase [5])?
**A.** The Matriptase was 1.1e6 [9.4e5, 1.2e6] [inhibitor]/[enzyme] ratio (dimensionless).
